Results taken from US8623324B2, “Luminescent dyes with a water-soluble intramolecular bridge and their biological conjugates” (AAT Bioquest Inc., priority 2010, dated 2014).

Tested on: goat anti-rabbit IgG (GAR)
Assay: Protein precipitation / water solubility of dye-protein conjugates at high dye/protein ratio
Format: physicochemical
Source text: FIG. 1. […] Their PBS solutions are adjusted to have the same absorption of OD=0.05 at 600 nm. The PBS solutions are excited at 600 nm, and the emissions are scanned from 620 to 800 nm.
FIG. 2. […] Their PBS solutions are adjusted to have the same absorption of OD=0.05 at 600 nm. The PBS solutions are excited at 600 nm, and the emissions are scanned from 620 to 800 nm.
FIG. 3. […] Their PBS solutions are adjusted to have the same absorption of OD=0.1 at 450 nm. The PBS solutions are excited at 460 nm, and the emissions are scanned from 470 to 650 nm.
The typical method for protein conjugation with succinimidyl esters of the invention is as follows. Variations in ratios of dye to protein, protein concentration, time, temperature, buffer composition and other variables that are well known in the art are possible that still yield useful conjugates. A solution of the protein is prepared at about 10 mg/mL in 0.1M sodium bicarbonate. The labeling reagents are dissolved in a suitable solvent such as DMF or DMSO at about 10 mg/mL. Water is a suitable solvent for many dyes of the invention. Predetermined amounts of the labeling reagents are added to the protein solutions with stiffing. A molar ratio of 10 equivalents of dye to 1 equivalent of protein is typical, though the optimal amount varies with the particular labeling reagent, the protein being labeled and the protein's concentration, and is determined empirically.

[1] = ratio of dye/protein larger than 8
[2] = ratio of dye/protein larger than 10

Compound | protein precipitation / water solubility of dye-protein conjugate [1] | protein precipitation / water solubility of dye-protein conjugate [2]
CC12CCCCCC(=O)NCCCCCNC(=O)C(CS(=O)(=O)O)NC(=O)C(CS(=O)(=O)O)NC(=O)C(CS(=O)(=O)O)NC(=O)CCCCCC3(C)/C(=C/C=C/C=C/C1=[N+](CCCCCC(=O)ON1C(=O)CCC1=O)c1ccc(S(=O)(=O)O)cc12)N(CCCCCC(=O)ON1C(=O)CCC1=O)c1ccc(S(=O)(=O)O)cc13 (stereo not shown) [Compound 39] | still water soluble | 
CC1(C)C2=[N+](CCCCCC(=O)NC(C(=O)NCCCCCC(=O)ON3C(=O)CCC3=O)CCCCNC(=O)CCCCCC3(C)/C(=C/C=C/C=C/2)N(CCCS(=O)(=O)O)c2ccc(S(=O)(=O)O)cc23)c2ccc(S(=O)(=O)[O-])cc21 (stereo not shown) [Compound 133] |  | causes protein to precipitate
CC1(C)C2=[N+](CCCCCC(=O)NC(Cc3ccc(S(=O)(=O)O)s3)C(=O)NCCCCC(C(=O)NCCCCCC(=O)ON3C(=O)CCC3=O)NC(=O)C(Cc3ccc(S(=O)(=O)[O-])s3)NC(=O)CCCCCC3(C)/C(=C/C=C/C=C/2)N(CCCS(=O)(=O)O)c2ccc(S(=O)(=O)O)cc23)c2ccc(S(=O)(=O)O)cc21 (stereo not shown) [Compound 134] |  | still water soluble
CC12CCCCCC(=O)NCCCCCCCCCCCCNC(=O)CCCCCC3(C)/C(=C/C=C/C=C/C1=[N+](CCCCCC(=O)ON1C(=O)CCC1=O)c1ccc(S(=O)(=O)O)cc12)N(CCCCCC(=O)ON1C(=O)CCC1=O)c1ccc(S(=O)(=O)O)cc13 (stereo not shown) [Compound 136] | causes protein to precipitate | 
